In patent publication US20250090562A1, “METHODS, COMPOSITIONS AND USES RELATED TO THE TREATMENT AND PREVENTION OF LEIGH’S SYNDROME” (Stealth BioTherapeutics Inc., priority 2023, published 2025):

Assay: Compound 4 pharmacokinetics and tissue exposure, five daily subcutaneous doses, mice
Assay type: in vivo, C57BL/6 mice
Protocol: • Animals were allowed to acclimate to the test facility for at least two days prior to the beginning of the study. • Study animals were male C57BL/6 mice weighing approximately 18-25 grams each. • Fasting was not required for the study. • Body weights were recorded prior to dose administration. The volume of each dose delivered (mL/kg) was based on each individual animal's body weight. • This was a multiple dose serial PK dosed subcutaneously once daily over 5 days. Compound 4 was administered to two groups: Group 1 at 60 mg/kg and Group 2 at 180 mg/kg (6 and 18 mg/mL, 15% Kolliphor ELP in PBS, 10 mL/kg; N=3/group). Serial PK timepoints were collected following the 5th and final dose.
• Serial blood samples were collected via tail vein snip. • Blood samples were collected into tubes with anticoagulant. Tubes were stored on wet ice until processed to plasma by centrifugation (3500 rpm at 5° C. for 10 minutes) within 20 minutes of collection. Sample aliquots of 20 μL were transferred into individual uniquely labeled matrix tubes and stored at nominal −80° C. until transferred to analytical chemistry for analysis. • Immediately following each terminal blood collection for all groups, animals were sacrificed and perfused with cold PBS. Heart and brain tissues were collected. • Perfusion methodology: The chest was opened lengthwise using scissors to expose the thoracic organs. A scalpel was used to cut a small hole into the left ventricle just large enough to insert a cannula tip. The cannula was attached to an appropriately sized tubing and syringe prefilled with cold PBS and primed to remove any air. The tip of the cannula was inserted into the left ventricle and directed into the ascending aorta. Hemostats were used to help keep the cannula in place during perfusion. A second hole was made in the right atrium to allow for the escape of fluid during the return circulation. The syringe attached to the cannula was manually pushed or placed into a pump programmed to infuse at 10 mL/min. Animals were perfused for a minimum of 3 minutes or more if needed (until the exiting fluid was clear).
• N=3/group; • Collections relative to the final dose: • Plasma: 60 mg/kg at 2 and 24 hr; 180 mg/kg at predose, 2, 8, and 24 hr • Heart and Brain: 24 hr (terminal, PBS-perfused); • RGA 2 bioanalysis. […]

[1] = male, C57BL/6, mouse, in vivo, sc
[2] = male, C57BL/6, mouse, in vivo, sc, 60 mg/kg
[3] = male, C57BL/6, mouse, in vivo, sc, 60 mg/kg, 24 h
[4] = male, C57BL/6, mouse, in vivo, sc, 180 mg/kg
[5] = male, C57BL/6, mouse, in vivo, sc, 180 mg/kg, 24 h

SMILES: CC1=C(C)C(=O)C(CC[C@](C)(O)CCCCCCCCC(F)(F)F)=C(C)C1=O [Compound 4]
- tolerability (60 and 180 mg/kg SC over 5 days, 10 mL/kg QD, 15% Kolliphor ELP in PBS): well tolerated
- Geomean C24 (male, C57BL/6, mouse, in vivo, 180 mg/kg, 24 h): 602 ng/g
- concentration at 24 h (male, C57BL/6, mouse, in vivo, 180 mg/kg, Geomean C24): 514 ng/g
- time to steady-state [1]: ≤ 5 days
- AUC(0-t) [2]: 15400 ng·h/mL
- AUClast/Dose [2]: 257 kg·ng·h/mL/mg
- Cmax [2]: 1440 ng/mL
- Concentration in C57BL/6 Mouse Tissue, Geomean [3]: 225 ng/g
- Concentration in C57BL/6 Mouse Tissue, Mean [3]: 226 ng/g
- Cmax (male, C57BL/6, mouse, in vivo, sc, 60 mg/kg, Cmax): 1810 ng/mL
- concentration at 24 h (male, C57BL/6, mouse, in vivo, sc, 60 mg/kg, Concentration in C57BL/6 Mouse Tissue, Geomean): 192 ng/g
- concentration at 24 h (male, C57BL/6, mouse, in vivo, sc, 60 mg/kg, Concentration in C57BL/6 Mouse Tissue, Mean): 212 ng/g
- AUC(0-t) [4]: 49100 ng·h/mL
- AUClast/Dose [4]: 273 kg·ng·h/mL/mg
- Cmax/Dose [4]: 26.7 kg·ng/mL/mg
- C24/Dose [5]: 1.48 kg·ng/mL/mg
- Concentration in C57BL/6 Mouse Tissue, Geomean [5]: 602 ng/g
- Concentration in C57BL/6 Mouse Tissue, Mean [5]: 635 ng/g
- concentration at 24 h (male, C57BL/6, mouse, in vivo, sc, 180 mg/kg, C24): 266 ng/mL
- Cmax (male, C57BL/6, mouse, in vivo, sc, 180 mg/kg, Cmax): 4800 ng/mL
- concentration at 24 h (male, C57BL/6, mouse, in vivo, sc, 180 mg/kg, Concentration in C57BL/6 Mouse Tissue, Geomean): 514 ng/g
- concentration at 24 h (male, C57BL/6, mouse, in vivo, sc, 180 mg/kg, Concentration in C57BL/6 Mouse Tissue, Mean): 529 ng/g
- Tmax [4]: 2 h
- Tmax [1]: 0.5 to 2 h
- plasma exposure versus dose (mouse, in vivo): approximately proportional to dose
- tissue C24 (trough) exposure versus dose (mouse, in vivo): approximately proportional to dose
